Data reported in ChEMBL document CHEMBL1143485, “The synthesis and biological evaluation of dopamine transporter inhibiting activity of substituted diphenylmethoxypiperidines” (Bioorg Med Chem Lett, 2005).
pIC50: −log10 of the molar value.

Columns and labels:
Mus musculus = experiment: Locomotor activity in mice after intraperitoneal administration at 17.8 […]; format: functional
[1] = molecular target: Sodium-dependent dopamine transporter (Rattus norvegicus, UniProt P23977); experiment: Displacement of [125I]RTI-55 dopamine transporter binding in rat striatal membrane; format: cell membranes, Striatum
Sodium-dependent dopamine transporter, sequence (P23977 whole entry): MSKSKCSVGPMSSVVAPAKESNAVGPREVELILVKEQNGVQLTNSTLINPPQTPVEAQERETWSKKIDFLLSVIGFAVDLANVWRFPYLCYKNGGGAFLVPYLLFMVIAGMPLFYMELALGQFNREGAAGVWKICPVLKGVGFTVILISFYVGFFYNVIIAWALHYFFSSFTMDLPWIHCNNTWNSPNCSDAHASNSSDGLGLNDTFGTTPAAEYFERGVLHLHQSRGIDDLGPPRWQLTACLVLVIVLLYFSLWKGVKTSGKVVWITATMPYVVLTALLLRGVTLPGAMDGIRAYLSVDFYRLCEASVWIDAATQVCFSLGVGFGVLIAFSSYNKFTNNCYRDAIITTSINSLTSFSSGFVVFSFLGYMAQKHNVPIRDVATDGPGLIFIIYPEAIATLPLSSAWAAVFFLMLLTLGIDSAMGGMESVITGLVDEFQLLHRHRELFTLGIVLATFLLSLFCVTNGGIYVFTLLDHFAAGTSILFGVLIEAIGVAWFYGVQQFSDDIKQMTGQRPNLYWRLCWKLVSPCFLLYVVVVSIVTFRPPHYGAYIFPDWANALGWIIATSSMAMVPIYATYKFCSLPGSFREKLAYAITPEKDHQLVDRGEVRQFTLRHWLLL

Row | SMILES | Activity (Mus musculus) [m/3h] | pIC50 [1]
1 | CN1CCC(OC(c2ccccc2)c2ccccc2)CC1 | 12.2 | 
2 | CN1CCC(OC(c2ccc(Cl)cc2)c2ccc(Cl)cc2)CC1 | 5.18 | 7.36
3 | CN1CCC(OC(c2ccc(F)cc2)c2ccc(F)cc2)CC1 | 34.8 | 
4 | CN1CCC(OC(c2ccccc2)c2ccc(Cl)cc2)CC1 (centres undefined) | 5.89 | 6.81
5 | Cc1cccc(C(OC2CCN(C)CC2)c2ccccc2)c1 (centres undefined) |  | 6.53
6 | CCCCN1CCC(OC(c2ccc(Cl)cc2)c2ccc(Cl)cc2)CC1 | 3.87 | 7.90
7 | CC(OC1CCN(C)CC1)c1ccc(F)cc1 (centres undefined) |  | 6.58
8 | CN1CCC(OC(c2ccccc2)c2ccc(F)cc2)CC1 (centres undefined) |  | 6.56
9 | Fc1ccc(CN2CCC(OC(c3ccc(Cl)cc3)c3ccc(Cl)cc3)CC2)cc1 |  | 7.30
10 | COC(=O)[C@H]1[C@@H](OC(=O)c2ccccc2)C[C@@H]2CC[C@H]1N2C [COCAINE] | 16.7 | 
11 | Fc1ccc(C(OCCN2CCN(CCCc3ccccc3)CC2)c2ccc(F)cc2)cc1 [VANOXERINE] | 26.3 | 
